Assay results taken from patent US20220296573A1, “NOVEL COMPOUNDS AND PHARMACEUTICAL COMPOSITIONS THEREOF FOR THE TREATMENT OF INFLAMMATORY DISORDERS” (Galapagos NV, priority 2019, published 2022).

Experiments:
Type in all cases: cell-based
[1] = tested on: CL097 triggered TNFα release in human whole blood; assay: Ex vivo human TNFα release inhibition (whole blood assay); details: CL097 2 μg/mL, 3 h 30 min
Description: The aim of the assay is to evaluate the activity of compounds of the invention on the activated TLR/IRAK-4 pathway in an ex vivo human whole blood setting. Toll-like receptors (TLRs) are pattern recognition receptors that recognize a wide variety of microbial molecules, called pathogen-associated molecular patterns (PAMPs). Human TLR7 and TLR8 recognize imidazoquinoline compounds (e.g., CL097—CAS n #1026249-18-2) and single stranded RNAs as their natural ligands. Activation of TLRs leads to the production of several cytokines (e.g., IFNα, TNFα, IL-8, IL-6) by the TLR agonist-treated cells, whereas IRAK4 leads to the production of IFNα. Cytokine release is used as readout in this assay and represents a measure for the level of inhibition of the TLR/IRAK-4 pathway by the tested compound. It should be noted that in the context of the complete organism, other sources for these cytokines exist that are not dependent on the TLR/IRAK-4 pathway, such as e.g., macrophages (upon activation of the Fcγ receptor (Yan et al. 2012)) or T cells (upon activation of the T cell receptor (Brehm, Daniels, and Welsh 2005)).
Blood is collected from healthy volunteers into lithium heparin tubes by venipuncture, then gently inverted several times to prevent clotting and incubated for at least 15 min at 37° C. on a rocking mixer shaker. Then, 100 μL of blood is dispensed into polypropylene 96-well microplate and pre-incubated in duplicate with 0.3% DMSO or test compound at different concentrations (from 30 to 0.01 μM, 3-fold dilutions to get 0.3% DMSO at the final) for 15 min at 37° C. After this pre-incubation, blood is triggered with CL097 (2 μg/mL from 1 mg/mL solution in water; InvivoGen, tlr1-c97) for 3 h 30 min at 37° C. Microtubes are centrifuged at 5000×g for 10 min at 4° C. and approximately 40 μL of plasma are collected into a polystyrene 96-well plate. Plasma can be analyzed freshly, within 30 min after triggering, or frozen at −80° C. Finally, the quantification of IFNα and IFNα were performed in the plasma using AlphaLISA Kit for […] according to the manufacturer's instructions and read on the Ensight (PerkinElmer).
For each blood sample, the TNFα concentrations of the samples were determined from the fit. Data were then expressed as a percentage of inhibition (PIN) for each replicate using the formula:
With mean TNFα with CL097=mean TNFα concentration of replicate samples triggered with CL097; TNFαsample1=TNFα concentration of sample 1; mean TNFα with vehicle=mean TNFα concentration of replicate samples treated with vehicle.
Curve fitting for pIC50 determination were generated using mean PIN±sem. Graphs and pIC50 calculations were derived using Prism 5.03 software (GraphPad).

[2] = tested on: LPS driven NFκB-reporter activity; assay: THP1-Lucia NFκB reporter assay, LPS trigger; details: THP-1-Lucia NFκB cells, LPS 2.5 ng/mL, 24 h; read-out: average pEC50, LPS driven NFκB-reporter activity (converted)
Description: (§1) This assay is used to evaluate the IRAK4 selectivity and potency of the compounds of the invention upon IRAK4 dependent (LPS and IL-1β) and independent triggering (TNFα), in a THP1-Lucia NFκB reporter assay.
(§2) THP-1-Lucia NFκB cells (Invivogen—5, rue Jean Rodier 31400 Toulouse France—cat #thp1-nfkb) were cultivated as recommended by the supplier using split cycles each cycle comprising a succession of thawing/expansion/seeding. The data reported were generated using cells having between 3 to 9 cycles. On the day of the experiment THP-1-Lucia NFκB cells were counted and seeded at a density of 1,000,000 cells/mL in culture medium (RPMI 1640 (Gibco, Cat #52400-025)+10% FBS (Sigma, Cat #F7524-500ML)+1% P/S (Gibco, Cat #15140-122)) by pipetting 54 μL/well in a 384 well plate. […]
(§3) For the readout, supernatant samples were thawed on ice and 5 μL sample was transferred from each well to a new 384-well plate. 20 μL of Quanti-Luc solution (Quanti-Luc powder (Invivogen, Cat #rep-qlc1) dissolved in 25 mL sterile water as indicated by the manufacturer) was added to each well after which luminescence was immediately measured on an Envision instrument.
(§4) To measure the inhibition of LPS/TNFα/IL-1β-induced NFκB-reporter activity, percentage inhibition (PIN) values were calculated for all concentrations tested, compared to controls. […]

[3] = tested on: IL-1β driven NFκB-reporter activity; assay: THP1-Lucia NFκB reporter assay, IL-1β trigger; details: THP-1-Lucia NFκB cells, IL-1β 3 ng/mL, 24 h; read-out: average pEC50, IL-1β driven NFκB-reporter activity (converted)
Description: as §1, §2, §3, §4

[4] = tested on: TNFα mediated NFκB-reporter activity; assay: THP1-Lucia NFκB reporter assay, TNFα trigger; details: THP-1-Lucia NFκB cells, TNFα 10 ng/mL, 24 h
Description: as §1, §2, §3, §4

Compound | IC50 [1] [nM] | EC50 [2] [nM] | EC50 [3] [nM] | activity on TNFα mediated NFκB-reporter activity [4]
CC(F)(F)c1cccc(C(=O)Nc2cn3cc(C4COCCO4)nc3cc2C(N)=O)n1 (stereo not shown) [Compound 11, 6-(6-(1,1-difluoroethyl)picolinamido)-2-(1,4-dioxan-2-yl)imidazo[1,2-a]pyridine-7-carboxamide] | 0.1 to 500 |  |  | 
COc1cc2nc(C3COCCO3)cn2cc1NC(=O)c1cccn(C2CCC2)c1=O (stereo not shown) [Compound 5, 1-cyclobutyl-N-[2-(1,4-dioxan-2-yl)-7-methoxy-imidazo[1,2-a]pyridin-6-yl]-2-oxo-pyridine-3-carboxamide] | 1000 to 5000 |  |  | 
COc1cc2nc(C3CCS(=O)(=O)CC3)cn2cc1NC(=O)c1cccn(C2CC2)c1=O [Compound 23, 1-cyclopropyl-N-(2-(1,1-dioxidotetrahydro-2H-thiopyran-4-yl)-7-methoxyimidazo[1,2-a]pyridin-6-yl)-2-oxo-1,2-dihydropyridine-3-carboxamide] | 0.1 to 500 |  |  | 
COc1cc2nc(C3COCCO3)cn2cc1NC(=O)c1cccn(C2CC2)c1=O (racemic) [Compound 1, 1-cyclopropyl-N-[2-(1,4-dioxan-2-yl)-7-methoxy-imidazo[1,2-a]pyridin-6-yl]-2-oxo-pyridine-3-carboxamide] | 0.1 to 500 | 617 | 39.8 | no activity was observed
